As usually defined, the Kd is the free concentration of one partner at which half of the binding sites on the other are occupied at equilibrium, for simple one-to-one binding. Low readings indicate tighter binding, high ones weaker binding.

These results are taken from US20240252488A1 (KOREA RESEARCH INSTITUTE OF CHEMICAL TECHNOLOGY, priority 2020, published 2024).

The target in test [1] is T1, MLKL (Homo sapiens, UniProt Q8NB16).
T1 sequence (Q8NB16 1-471): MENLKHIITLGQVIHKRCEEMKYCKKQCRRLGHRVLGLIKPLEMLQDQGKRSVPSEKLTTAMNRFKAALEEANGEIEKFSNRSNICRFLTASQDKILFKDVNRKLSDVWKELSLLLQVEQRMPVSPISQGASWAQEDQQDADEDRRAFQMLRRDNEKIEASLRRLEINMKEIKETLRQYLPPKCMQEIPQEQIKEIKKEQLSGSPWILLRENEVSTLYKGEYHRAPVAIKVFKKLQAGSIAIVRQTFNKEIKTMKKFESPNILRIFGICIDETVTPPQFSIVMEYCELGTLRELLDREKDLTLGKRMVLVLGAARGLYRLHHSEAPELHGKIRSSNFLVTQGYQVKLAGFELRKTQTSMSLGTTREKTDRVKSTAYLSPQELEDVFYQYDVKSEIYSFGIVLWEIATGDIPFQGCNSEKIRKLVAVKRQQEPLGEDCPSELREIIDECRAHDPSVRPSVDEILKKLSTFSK
Kind of test: MLKL degradation assay in HepG2 cell line (western blot). The format is cell-based. More on the design: endogenous in cells; host or cells: HepG2 or HaCaT. Conditions: cell line not given; for Degradation assay (Degradation %) 1 μM: compound 1 μM; for Degradation assay (Degradation %) 10 μM: compound 10 μM. The gist of the method: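 HepG2, cpd final 1 or 10 μM, 20-24 h, 37 °C/5% CO2; RIPA lysis, BCA-normalized, 10-15 μg/lane SDS-PAGE, western blot, ECL read-out.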
In general terms: A western blot detects proteins with antibodies after separation by electrophoresis.

For the next test, the system named is FADD−/− Jurkat cells. Nature of the test: Necroptosis inhibition assay, TNF-α-induced necroptosis (CellTiter-Glo 2.0). The format is cell-based, human. Conditions: TNF-α 15 ng/mL; for Necroptosis inhibition assay (Rescue %) 1 μM: compound 1 μM; for Necroptosis inhibition assay (Rescue %) 10 μM: compound 10 μM. The gist of the method: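 Cmpd 0.1/1/10 μM final, 30 min RT preincubation; TNF-α 15 ng/mL final; 20–24 h, 37° C, 5% CO2. Readout: ATP luminescence (reagent 1:3 in PBS), 0.5 s/well. Cytotoxicity and % necroptosis inhibition calculated from signal.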
(In general: In ATP-based viability assays light output follows the ATP content of the culture.)

Test [2] addresses T1, MLKL. Kind of test: Measurement of binding affinity with MLKL receptor (competitive binding assay, Kd). Details: made in house; host or cells: HEK 293 cell line (T7 phage in E. coli BL21-derived host is also described). The procedure, abridged: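 Competition binding of kinase tagged with DNA for qPCR detection, expressed in HEK 293 cells, against immobilized ligand on beads. Final DMSO 0.9%. Kd derived from kinase amount in eluates measured by qPCR.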

For the compound `Nc1ncc(-c2cnn(C3CCN(CCCN4CCN(C(=O)COc5ccc6nnn(C7CCC(=O)NC7=O)c(=O)c6c5)CC4)CC3)c2)nc1C(=O)O[C@@H](C(=O)Nc1ccc(F)cc1)c1ccccc1` (stereo partly drawn) [TDH-370, (R)-2-((4-fluorophenyl)amino)-2-oxo-1-phenylethyl 3-amino-6-(1-(1-(3-(4-(2-((3-(2,6-dioxopiperidin-3-yl)-4-oxo-3,4-dihydrobenzo[d][1,2,3]triazin-6-yl)oxy)acetyl)piperazin-1-yl)propyl)piperidin-4-yl)-1H-pyrazol-4-yl)pyrazine-2-carboxylate], on MLKL [1], the “Degradation assay (Degradation %) 1 μM” value was 91.76% and the “Degradation assay (Degradation %) 10 μM” value is 85.83%. Moreover, in the test with FADD−/− Jurkat cells, the “Necroptosis inhibition assay (Rescue %) 1 μM” value is 52.00% and the “Necroptosis inhibition assay (Rescue %) 10 μM” value is reported as 24.38%. Besides, on MLKL [2], the Kd was 0.28 nM.

In the case of `Nc1ncc(-c2cnn(C3CCN(CC4CCN(CC5CCN(C(=O)C6CCN(C7=CC(=O)N(C8CCC(=O)NC8=O)C7=O)CC6)CC5)CC4)CC3)c2)nc1C(=O)O[C@@H](C(=O)Nc1ccc(F)cc1)c1ccccc1` (stereo partly drawn) [TDH-527, (R)-2-((4-fluorophenyl)amino)-2-oxo-1-phenylethyl 3-amino-6-(1-(1-((1-((1-(1-(1-(2,6-dioxopiperidin-3-yl)-2,5-dioxo-2,5-dihydro-1H-pyrrol-3-yl)piperidine-4-carbonyl)piperidin-4-yl)methyl)piperidin-4-yl)methyl)piperidin-4-yl)-1H-pyrazol-4-yl)pyrazine-2-carboxylate], at MLKL [1], the “Degradation assay (Degradation %) 1 μM” value turned out to be 71.10% and the “Degradation assay (Degradation %) 10 μM” value came to 42.46%. In addition, in the test with FADD−/− Jurkat cells (FADD−/− Jurkat cells), the “Necroptosis inhibition assay (Rescue %) 1 μM” value is listed as 42.79% and the “Necroptosis inhibition assay (Rescue %) 10 μM” value was −12.98%. The compound further had a dissociation constant Kd at MLKL [2] of 1.2 nM.

In the case of `Nc1ncc(-c2cnn(C3CCN(C(=O)C4CCN(c5cccc6c5C(=O)N(C5CCC(=O)NC5=O)C6=O)CC4)CC3)c2)nc1C(=O)OC(C(=O)Nc1ccc(F)cc1)c1ccccc1` (centres unmarked) [TDH-279, 2-((4-fluorophenyl)amino)-2-oxo-1-phenylethyl 3-amino-6-(1-(1-(1-(2-(2,6-dioxopiperidin-3-yl)-1,3-dioxoisoindolin-4-yl)piperidine-4-carbonyl)piperidin-4-yl)-1H-pyrazol-4-yl)pyrazine-2-carboxylate], at MLKL [1], the “Degradation assay (Degradation %) 1 μM” value is recorded as 38.42% and the “Degradation assay (Degradation %) 10 μM” value was 15.86%. In the test on FADD−/− Jurkat cells, the “Necroptosis inhibition assay (Rescue %) 1 μM” value is 24.78% and the “Necroptosis inhibition assay (Rescue %) 10 μM” value is reported as 44.14%. Moreover, binding on MLKL [2] was characterised by a dissociation constant (Kd) of 5 nM.

For the compound `Nc1ncc(-c2cnn(C3CCN(CCCN4CC5CN(C(=O)COc6ccc7c(c6)C(=O)N(C6CCC(=O)NC6=O)C7=O)CC5C4)CC3)c2)nc1C(=O)O[C@@H](C(=O)Nc1ccc(F)cc1)c1ccccc1` (stereo partly drawn) [TDH-466, (R)-2-((4-fluorophenyl)amino)-2-oxo-1-phenylethyl 3-amino-6-(1-(1-(3-(5-(2-((2-(2,6-dioxopiperidin-3-yl)-1,3-dioxoisoindolin-5-yl)oxy)acetyl)hexahydropyrrolo[3,4-c]pyrrol-2(1H)-yl)propyl)piperidin-4-yl)-1H-pyrazol-4-yl)pyrazine-2-carboxylate], on MLKL [1], the “Degradation assay (Degradation %) 1 μM” value amounted to 60.76% and the “Degradation assay (Degradation %) 10 μM” value stood at 86.28%. Also, in the test on FADD−/− Jurkat cells (FADD−/− Jurkat cells), the “Necroptosis inhibition assay (Rescue %) 1 μM” value came to 54.2% and the “Necroptosis inhibition assay (Rescue %) 10 μM” value came out at 26.69%. The same compound gave a Kd on MLKL [2] of 0.41 nM.
